Assay results taken from patent publication US20130310306A1, “HUMAN LACTOFERRIN DERIVED PEPTIDES AND THEIR USE” (PharmaSurgics In Sweden AB, priority 2011, published 2013).

Assays:
[1] = tested on: TNF-α production in LPS stimulated THP-1 cells; assay: Inhibition of TNF-α production in LPS stimulated THP-1 cells (ELISA); settings: for TNF-α at 40 μM peptide / TNF-α at 4 μM peptide / TNF-α at 10 μM peptide: mean relative secretion; for TNF-α at 40 μM peptide: stimulated level without peptide = 100%, basal = 0%
[2] = tested on: S. aureus (CCUG 1800); assay: Minimal microbicidal concentration (MMC99) assay, S. aureus; assay type: cell-based; settings: 2 hours; for MMC99 μM in 50% SWF: 50% heat inactivated simulated wound fluid
Procedure: Antimicrobial Activity was Measured as Bactericidal Effect on S. Aureus Using Minimal Microbicidal Concentration, MMC99, Assay)
S. aureus (#1800; CCUG, Gothenburg, Sweden) cultured on blood-agar plates [Columbia agar (Oxoid, Basingstoke, UK) supplemented with 5% defibrinated horse blood (National Veterinary Institute (SVA), Uppsala, Sweden)] were transferred to brain heart infusion broth (3.7% BHI; Difco, BD Diagnostics, Franklin Lakes, N.J., USA) and incubated in a shaker at 250 rpm+37° C. over night. The culture was thereafter be diluted 1:10 in fresh BHI broth and incubated for additional two hours to reach log-phase growth. The bacteria were pelleted and suspended in 1% BHI medium (BHI broth diluted 100 times in ultra-pure water) to a concentration of 10^7 bacteria/ml as estimated by measuring optical density at 600 nm. Peptides were serially diluted by two-fold steps from 160 μM to 1.25 μM in 1% BHI medium. The peptides (100 μl) were thereafter incubated with bacteria (5 μl á 10^7 bact./ml) for 2 hours at +37° C. Drops (5 μl) of the suspension were placed on blood agar plates. The blood agar plates were incubated over night at +37° C. The MMC99 values, i.e. the lowest peptide concentration needed to achieve a 99% reduction of viable bacteria, were recorded (Table 3). The concentration of the bacterial suspension used in the assay was confirmed by viable counts on blood agar plates.
S. aureus (#1800; CCUG, Gothenburg, Sweden) cultured on blood-agar plates [Columbia agar (Oxoid, Basingstoke, UK) supplemented with 5% defibrinated horse blood (National Veterinary Institute (SVA), Uppsala, Sweden)] were transferred to brain heart infusion broth (3.7% BHI; Difco, BD Diagnostics, Franklin Lakes, N.J., USA) and incubated in a shaker at 250 rpm+37° C. over night. The culture was thereafter be diluted 1:10 in fresh BHI broth and incubated for additional two hours to reach log-phase growth. The bacteria were pelleted and suspended in 1% BHI medium (BHI broth diluted 100 times in ultra-pure water) to a final concentration of 10^7 bacteria/ml as estimated by measuring optical density at 600 nm. Peptides were serially diluted by two-fold steps from 400 μM to 0.78 μM in either 1% BHI medium or in 50% heat inactivated simulated wound fluid [SWF, containing 1 part 0.1% peptone (Oxoid, Basingstoke, UK) in saline and 1 part fetal bovine serum, diluted 2 times in ultra-pure water].
The peptides (100 μl) were thereafter incubated with bacteria (5 μl á 10^7 bact./ml) for 2 hours at +37° C. Drops (5 μl) of the suspension were placed on blood agar plates. The blood agar plates were incubated over night at +37° C. The MMC99 values, i.e. the lowest peptide concentration needed to achieve a 99% reduction of viable bacteria were recorded (Table 6). The concentration of the bacterial suspension used in the assay was confirmed by viable counts on blood agar plates.
The antimicrobial effects of the peptide 265 (SEQ ID NO: 27) was analysed by MMC99 (minimal microbicidal concentration) assay against S. aureus (CCUG 1800), MRSA (CCUG 41879), P. aeruginosa (ATCC 15442), E. coli (CCUG 31246), S. pyogenes (CCUG 4207), P. acnes (CCUG 1794T), S. epidermidis (ATCC12228), K. pneumoniae (ATCC 13883), A. baumannii (ATCC 19606), and C. albicans (ATCC 64549). The peptides were purchased from Biopeptide Company (San Diego, Calif., USA) and Bachem AG (Bubendorf, Switzerland) and results are presented in Table 8A and 8B respectively.
Peptide was serially diluted in two different assay medium, 1% BHI medium (brain-heart infusion medium) or 50% heat inactivated simulated wound fluid (SWF), and thereafter incubated with the microorganisms for 2 hours. Drops of the suspension were placed on blood agar plates. The MMC99 values, i.e. the lowest peptide concentration needed to achieve a 99% reduction of viable microorganisms, were recorded. As presented in Table 8, the peptide has the ability to kill microorganisms frequently appearing in infections.

[3] = screen 1, 99% reduction of viable bacteria

Sequence | TNF-α at 40 μM peptide ([1]; screen 2, 40 μM peptide) [%] | MMC99 μM in 1% BHI medium [2, 3] [µM] | TNF-α at 40 μM peptide ([1]; screen 1, 40 μM peptide, 6 h) [%] | MMC99 μM in 1% BHI medium ([2]; screen 2) [µM] | MMC99 μM in 50% SWF ([2]; screen 2) [µM] | TNF-α at 4 μM peptide ([1]; screen 2) [%] | TNF-α at 10 μM peptide ([1]; screen 2) [%] | TNF-α activities at 40 μM ([1]; 40 μM peptide, result in words) | TNF-α activity at higher concentrations ([1]; concentrations higher than 40 μM, result in words)
VYYKRTARKARGSRRRRG [Peptide 272] | 102.8 |  |  |  |  |  |  |  | 
CFQWKRAMRKVRGSRRRRG [Peptide 155] |  | 10 | 5 |  |  |  |  |  | 
FWWKKAMKKVKGTRRRRG [Peptide 273] | 52.7 |  |  | 6.25 | 12.5 | 86.2 | 78.6 |  | 
FWWKRAMRKVRLSRRRRG [Peptide 270] | 23.1 |  |  | 6.25 | 12.5 | 96.2 | 71.5 |  | 
FQWQRNMRKVRGSRRRRG [template peptide, reference compound] |  |  |  |  |  |  |  | almost inactive | active
KQWKRWMRKVFVSLRRVG [Peptide 260] | 5.9 |  |  | 6.25 | 25 | 99.3 | 74.0 |  | 
RQWKRRMRKVFHSYRRMG [Peptide 259] | 33.0 |  |  | 6.25 | 25 | 108.4 | 108.5 |  | 
FQWQRKMRKVRGSRRRRG [Peptide 126] |  | 10 | 107 |  |  |  |  |  | 
FQWKRRMRKVRGSRRRRG [Peptide 127] |  | 5 | 9 |  |  |  |  |  | 
WFQWKRAMRKVRGSRRRRG [Peptide 130] |  | 5 | 6 |  |  |  |  |  | 
CFLWRRNMRKVRGSRRRRG [Peptide 276] | 38.8 |  |  | 6.25 | 12.5 | 111.0 | 135.3 |  | 
FRWKRRMRKVRGSRRRQG [Peptide 263] | 61.4 |  |  | 6.25 | 100 | 93.6 | 100.1 |  | 
FQWKRRMRKVRGSKKKKG [Peptide 257] | 62.8 |  |  | 6.25 | 200 | 114.5 | 109.1 |  | 
RQWKRVMRKVFGSRWWRG [Peptide 261] | 24.5 |  |  | 12.5 | 12.5 | 86.0 | 56.2 |  | 
FQWQRNMRKVRGSRRRRG [Peptide 116] |  | 10 | 83 |  |  |  |  |  | 
CFQWKRAMRKVRGPPVSCIKRDS [Peptide 159] |  | 20 | 60 |  |  |  |  |  | 
FQWQRNMRKVRGPPSRRRRG [Peptide 154] |  | 10 | 162 |  |  |  |  |  | 

Sequence | TNF-α at 40 μM peptide ([1]; screen 2, 40 μM peptide) [%] | MMC99 μM in 1% BHI medium [2, 3] [µM] | TNF-α at 40 μM peptide ([1]; screen 1, 40 μM peptide, 6 h) [%] | MMC99 μM in 1% BHI medium ([2]; screen 2) [µM] | MMC99 μM in 50% SWF ([2]; screen 2) [µM] | TNF-α at 4 μM peptide ([1]; screen 2) [%] | TNF-α at 10 μM peptide ([1]; screen 2) [%] | TNF-α activities at 40 μM ([1]; 40 μM peptide, result in words) | TNF-α activity at higher concentrations ([1]; concentrations higher than 40 μM, result in words)
FQWQRNMRKVRGPSRRRRG [Peptide 153] |  | 10 | 159 |  |  |  |  |  | 
FWWKRAMRKVRGSRRRRG [Peptide 132] |  | 5 | 18 |  |  |  |  |  | 
KQWKRMMRKVFSVRRWFL [Peptide 262] | 12.1 |  |  | 6.25 | 6.25 | 79.6 | 45.3 |  | 
FQWQRNMRKVRGSRRRRG [Peptide 224] | 113.4 |  |  | 12.5 | 400 |  |  |  | 
FQWQRNMRKVRGSRRRRG [Peptide 150] |  | 10 | 134 |  |  |  |  |  | 
FQWQRNMRKVRGSRRRRG [Peptide 282] | 114.8 |  |  | 12.5 | 200 |  |  |  | 
GRRRRSGRVKRMRRKQWF [Peptide 268] | 74.4 |  |  | 6.25 | 200 | 114.5 | 129.7 |  | 
FWWKRAMRKVRNSRRRRG [Peptide 271] | 24.5 |  |  | 6.25 | 6.25 | 101.7 | 74.4 |  | 
CFQWQRNMRKVRGPPVSCIKR [Peptide 157] |  | 20 | 153 |  |  |  |  |  | 
FQWQRNMRKVRGSRRRRG [Peptide 256] | 100.5 |  |  | 12.5 | 200 |  |  |  | 
GRRRRSFQWKRRMRKVR [Peptide 269] | 66.2 |  |  | 6.25 | 200 | 115.7 | 113.8 |  | 
FQWKRRMRKVRSGRRRGR [Peptide 264] | 87.2 |  |  |  |  |  |  |  | 
FQWKRRKRMRRGSVRRRG [Peptide 266] | 101.1 |  |  |  |  |  |  |  | 
EATKCFQWQRNMRKVRGPPVSSIKR [Peptide 156] |  | 20 | 124 |  |  |  |  |  | 
FQWQRNMRKVRGSRRRRG [Peptide 152] |  | 10 | 110 |  |  |  |  |  | 
FQWKRRMRKVRGSLRRWG [Peptide 258] | 39.8 |  |  | 6.25 | 12.5 | 110.4 | 115.4 |  | 
